Where “and” joins values, the source holds several entries; their conditions need not be identical. Equal entries are not always repeated.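 Each compound was tested at five concentrations against cells in 96-well plates for 48 hours. GI50 = concentration required for 50% inhibition of growth. TGI is the concentration that stops growth completely.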
How the values were obtained:
Test in all cases: NCI anticancer screen, dose series, 48 h
HCT-116 colon = system: HCT-116 colon
NCI-H460 lung = system: NCI-H460 lung
HL-60(TB) leukemia = system: HL-60(TB) leukemia
OVCAR-3 ovarian = system: OVCAR-3 ovarian
SK-MEL-28 melanoma = system: SK-MEL-28 melanoma
HT29 colon = system: HT29 colon
M14 melanoma = system: M14 melanoma
MDA-MB-231 breast = system: MDA-MB-231 breast
KM12 colon = system: KM12 colon
CAKI-1 renal = system: CAKI-1 renal

Structure (SMILES)	GI50 (HCT-116 colon) [µM]	TGI (HCT-116 colon)	GI50 (NCI-H460 lung) [µM]	TGI (NCI-H460 lung)	GI50 (HL-60(TB) leukemia)	TGI (HL-60(TB) leukemia)	GI50 (OVCAR-3 ovarian)	TGI (OVCAR-3 ovarian)	GI50 (SK-MEL-28 melanoma)	TGI (SK-MEL-28 melanoma)	GI50 (HT29 colon) [µM]	TGI (HT29 colon) [µM]	GI50 (M14 melanoma) [µM]	TGI (M14 melanoma) [µM]	GI50 (MDA-MB-231 breast) [µM]	TGI (MDA-MB-231 breast)	GI50 (KM12 colon)	TGI (KM12 colon)	GI50 (CAKI-1 renal) [µM]	TGI (CAKI-1 renal) [µM]
Cc1cn2c(=O)n(c1=O)Cc1ccccc1C2	27.3	> 100 µM	> 100	> 100 µM	> 100 µM	> 100 µM	> 100 µM	> 100 µM	> 100 µM	> 100 µM	> 100	> 100	> 100	> 100	5.84	> 100 µM	> 100 µM	> 100 µM	> 100	> 100
Cc1cc(NC(=O)NC(=O)c2ccccc2NC(=O)CN)ccc1Oc1ncc(Br)cn1	0.43	26.1 µM and > 100 µM	0.405	44.5 µM and 11.8 µM	0.111 µM and 0.0249 µM	0.865 µM and 0.175 µM	0.0157 µM		0.0822 µM	41.2 µM and > 100 µM	0.0653		0.117			5.17 µM and 14 µM	0.146 µM	34.5 µM and > 100 µM		2.61
CC1(C)N[P+]2(Nc3ccccc3O2)OC1=O (stereo not given)		> 100 µM		> 100 µM		> 100 µM		> 100 µM		> 100 µM		> 100		> 100		> 100 µM		> 100 µM		> 100
COc1ccc(-c2ccccc2)cc1-c1c(Nc2cc(Cl)cc(Cl)c2O)c(=O)c1=O	1.58	> 50 µM	1.55	> 50 µM	1.11 µM	2.54 µM	1.28 µM	3.88 µM	2.05 µM	> 50 µM	1.92	> 50	1.72	> 50	1.2	3.17 µM	1.53 µM	> 50 µM	1.33	4.83
Cc1cc(C)c2c(N)c3cccc(C)c3nc2n1	0.667	3.85 µM	1.4	4.22 µM	3.67 µM	16.4 µM	2.57 µM	5.46 µM	3.86 µM	15.9 µM	0.994	5.27	1.58	3.24	1.56	6.27 µM	3.32 µM	9.69 µM	2.25	8.35
Cc1cc2nc3c4cccc(O)c4n(CCN(C)C)c3nc2cc1C	1.49	7.97 µM	0.818	6.13 µM	1.57 µM	4.13 µM	3.11 µM	15.7 µM	1.78 µM	3.34 µM	2.81	20	1.63	3.43	2.04	5.63 µM	1.65 µM	4.17 µM	1.35	3.89
CNCCOC(=O)/C=C1/CCC2C(C(O)CC3C(C)(C(=O)OC)CCCC23C)C1C (stereo not given)	0.0158	0.0311 µM	< 0.01	0.019 µM	0.0261 µM	0.0638 µM	< 0.0139 µM	0.0276 µM	0.029 µM	0.0758 µM	0.0231	0.0473	0.0202	0.0424	0.0604	0.229 µM	0.0339 µM	0.111 µM	0.0202	0.053
COc1cc2c3c(n(CCCNCCNCCCN)c(=O)c2cc1OC)-c1cc2c(cc1C3=O)OCO2	1.29	2.56 µM	6.41	> 100 µM	6.11 µM	51.7 µM	2.22 µM	7.63 µM	6.6 µM	20.1 µM	2.03	10.2	3	12.5	1.19	3.59 µM	2.61 µM	14.5 µM	5.68	24.1
CN(C)CCNC(=O)c1nc([N+](=O)[O-])cn1C		> 100 µM		> 100 µM		> 100 µM		> 100 µM		> 100 µM		> 100		> 100		> 100 µM		> 100 µM		> 100
CCCCCCCCCCCCCCCCn1cc[n+](Cc2ccccc2)c1C			0.479	1.8 µM	0.0496 µM	2.06 µM	0.178 µM and 0.175 µM	0.947 µM and 0.49 µM	1.7 µM and 0.246 µM	4.22 µM and 1.35 µM	0.297	1.08	0.425	1.91	0.0684	0.989 µM	1.36 µM and 0.176 µM	2.87 µM and 0.407 µM		
Cc1ccc(/C(=C/C=C(C#N)C#N)Sc2ccccn2)cc1	2.35	5.71 µM	4.62	21 µM	0.328 µM	3.72 µM	2.09 µM	8.25 µM	2.08 µM	4.51 µM	2.89	8.41	2.69	6.29	2.3	7.45 µM	3.33 µM	20.2 µM	5.62	11.8
CC1(C)Cc2c(Br)c(Br)c(Br)c(OCC(O)CN3CCOCC3)c2O1 (stereo not given)	15.4	45.2 µM	9.29	25.8 µM	3.72 µM	17.9 µM	12.3 µM	28.5 µM	15 µM	31.9 µM	3.73	19	17.9	37.1	10.1	22.5 µM	13.4 µM	28.9 µM	12.3	27.4
O=C(CCCn1ccnc1[N+](=O)[O-])NCCn1ccnc1[N+](=O)[O-]		> 100 µM		> 100 µM		> 100 µM		> 100 µM		> 100 µM		> 100		> 100				> 100 µM		> 100
COc1ccc(C(=O)CC(c2ccc(OC)c(OC)c2)c2c(O)c3ccccc3oc2=O)cc1OC (stereo not given)		> 100 µM		> 100 µM		> 100 µM		> 100 µM		> 100 µM		> 100		> 100		> 100 µM		> 100 µM		> 100

Reference: PubChem BioAssay (NCI)
